# Measurements from patent publication US8921394B2, “Prolylcarboxypeptidase inhibitors” (Merck Sharp & Dohme Corp., priority 2010, dated 2014).
# Counter-ions that a name gives are not always drawn. Like-named read-outs stand apart in the source and are kept apart here.
# Assays:
# human PrCP = biological target: T1, human PrCP (Homo sapiens, UniProt P42785); assay: Prolylcarboxypeptidase (PRCP) enzyme activity assay, fluorescence intensity kinetic assay; type: biochemical
# T1 construct: made in house
# T1 sequence (P42785 46-496): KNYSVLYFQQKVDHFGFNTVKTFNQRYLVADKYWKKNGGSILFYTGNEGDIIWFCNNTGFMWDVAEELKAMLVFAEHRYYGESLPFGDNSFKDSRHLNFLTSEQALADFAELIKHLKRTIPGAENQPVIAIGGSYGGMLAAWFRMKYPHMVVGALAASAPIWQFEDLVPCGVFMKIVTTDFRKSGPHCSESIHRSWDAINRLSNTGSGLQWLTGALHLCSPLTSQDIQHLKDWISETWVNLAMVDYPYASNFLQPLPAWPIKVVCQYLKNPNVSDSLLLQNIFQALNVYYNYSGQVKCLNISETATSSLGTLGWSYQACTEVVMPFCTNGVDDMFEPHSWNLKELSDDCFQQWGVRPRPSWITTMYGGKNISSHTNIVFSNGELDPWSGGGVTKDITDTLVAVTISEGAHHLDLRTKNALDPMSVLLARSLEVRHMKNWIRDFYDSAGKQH
# Procedure: The potency of compounds of formula I against PrCP was determined by a fluorescence intensity kinetic assay measuring the IC50 values of PrCP inhibitor test compounds. […] The assay was run on a Perkin. […] The assay was performed using a Hamilton Star liquid handling workstation. The assay employed the internally quenched fluorescent substrate (1S)-1-carboxy-5-[(2,4-dinitrophenyl)amino]pentyl [(7-methoxy-2-oxo-2H-chromen-4-yl)acetyl]-L-alanyl-L-prolinate prepared in house. The assay was run in a 384-well microtiter plate at 37° C. with a total volume of 50 uL. […] The assay also contained 2% DMSO used to solubilize the substrate and inhibitor. Inhibitors were prepared in 100% DMSO and serial diluted (in 100% DMSO) to generate 11 point titration curves. Either 39 uL of human or mouse PrCP enzyme was added to the wells of the assay plate, followed by a 1 uL addition of the serially diluted inhibitor and mixed three times using a 30 uL mix volume. The reaction was initiated by the addition of 10 uL substrate and mixed three times using a 30 uL mix volume. The reactions were monitored continuously over 25 min at 37° C. to obtain initial velocities. IC50 values were calculated by comparing the resulting rates of reaction of the inhibited and control initial velocities.
# The enzymes were diluted in a mixture of 10 mM NaOAc (pH 5.5)/100 mM NaCl buffer containing 25 ug/mL bovine serum albumin that had been warmed to 37° C. in a water bath. The PrCP inhibitor test compounds were plated in 100% DMSO with a highest concentration of 500 uM. There were 12 dilution points for each compound tested including a blank with DMSO only. […] Likewise, two control compounds were similarly titrated and included in each assay, with final starting concentrations starting at 10,000 nM and 200 nM, respectively. […] The substrate was solubilized in 100% DMSO prior to dilution into the assay.
# [1] = intracerebroventricular to rats; cited from earlier work
# [2] = systemic administration to obese, leptin deficient mice; cited from earlier work
# [3] = recombinant human PrCP, cell line CHO, read-out: Human PRCP Enzyme Inhibition IC50
molecule,measurement,setting,value
"Fc1ccc(-c2cc([C@@H]3CCN(CCc4ccccc4)C[C@H]3c3ccc(F)cc3)n[nH]2)cc1 (relative stereo) [Example 11, (3R*,4R*)-3-(4-fluorophenyl)-4-[5-(4-fluorophenyl)-1H-pyrazol-3-yl]-1-phenethyl-piperidine trifluoroacetate salt]",IC50,human PrCP; [3],2.3 nM
"N#Cc1cccc(-c2cc([C@@H]3CCN(CCc4ccccc4)C[C@H]3c3ccc(F)cc3)n[nH]2)c1 (relative stereo) [Example 12, 3-[3-[(3R*,4R*)-3-(4-fluorophenyl)-1-phenethyl-4-piperidyl]-1H-pyrazol-5-yl]benzonitrile triflizoroacetate salt]",IC50,human PrCP; [3],7.9 nM
"Fc1ccc([C@@H]2CN(CCc3ccccc3)CC[C@H]2c2n[nH]c(-c3ccc(Cl)cc3)n2)cc1 (relative stereo) [Example 20, (3R*,4R*)-4-[5-(4-chlorophenyl)-1H-1,2,4-triazol-3-yl]-3-(4-fluorophenyl)-1-phenethyl-piperidine trifluoroacetate salt]",IC50,human PrCP; [3],50.9 nM
"Cn1nc(C2(c3ccccn3)CCN(CCc3ccccc3)CC2)cc1-c1ccc(F)cc1 [Example 3, 2-[4-[5-(4-fluorophenyl)-1-methyl-pyrazol-3-yl]-1-phenethyl-4-piperidyl]pyridine bis(trifluoroacetate) salt]",IC50,human PrCP,498 nM
"Clc1ccc(CCN2CCC(c3ccccc3)(c3cc(-c4ccc(Cl)cc4)[nH]n3)CC2)cc1 [Example 6, 1-[2-(4-chlorophenyl)ethyl]-4-[5-(4-chlorophenyl)-1H-pyrazol-3-yl]-4-phenyl-piperidine trifluoroacetate salt]",IC50,human PrCP,175 nM
"CC(C)(C)N1C[C@@H](c2cc(-c3ccc(Cl)cc3)[nH]n2)[C@H](c2ccc(F)cc2F)C1 [Example 13, 3-[(3S,4R)-1-tert-butyl-4-(2,4-difluorophenyl)pyrrolidin-3-yl]-5-(4-chlorophenyl)-1H-pyrazole trifluoroacetate salt]",IC50,"human PrCP; recombinant human PrCP, cell line HEK, read-out: Human PRCP Enzyme Inhibition IC50",413 nM
t-butyl carbamate-prolyl prolinal [BPP],overnight food intake,[1],suppression of overnight food intake
same,overnight food intake,[2],suppression of overnight food intake
